# Values of other authors as cited in patent US12138347B2, “Nanoparticles and nanonetworks formed therefrom” (University of Houston System, priority 2018, dated 2024).
# Tests used:
# [1] = system: HT-29 colon carcinoma cells; details: p53 null cell line
# HL60 leukemia cells = details: p53 null cell line
# K562 leukemia cells = details: p53 null cell line
smiles,measurement,setting,value
"C[C@H]1CCC/C=C/[C@@H]2C[C@H](O)C[C@H]2[C@H](O)/C=C/C(=O)O1 [BFA, Brefeldin A]",potency in HT-29 colon carcinoma cells,[1],high potency
same,effect on efficacy of docetaxel,prostate cancer cells,enhances the efficacy
same,potency in HL60 leukemia cells,HL60 leukemia cells,high potency
same,potency in K562 leukemia cells,K562 leukemia cells,high potency
